Data taken from ChEMBL document CHEMBL6120940, “Discovery of N-Aryl-N'-[4-(aryloxy)cyclohexyl]squaramide-Based Inhibitors of LXR/SREBP-1c Signaling Pathway Ameliorating Steatotic Liver Disease: Navigating the Role of SIRT6 Activation” (J Med Chem, 2024).
Active and inactive are the calls of the source. The calls are words filed in the database; no cut-off is given here.

Key:
[1] = AUC infinity in 16 hrs fasted ICR mouse at 2 mg/kg, iv measured upto 8 hrs by LC-MS/MS analysis; type: ADME, organism-based; conditions: in vivo
[2] = test system: Mus musculus; assay: Anti-lipogenic activity against high fat died induced male C57BL/6J mouse obesity model assessed as effect on body weight at 15 mg/kg, po administered three times per week and measured for 5 weeks; type: functional, organism-based
[3] = test system: Mus musculus; assay: Anti-lipogenic activity against high fat died induced male C57BL/6J mouse obesity model assessed as downregulation of Srebp-1c level at 15 mg/kg, po administered three times per week and measured after 5 weeks by RT-qPCT analysis; type: functional, organism-based
[4] = Downregulation of SREBP-1c mRNA expression in human HepG2 cells at 10 uM pretreated with compound for 30 mins followed by T0901317 addition and measured after 12 hrs by RT-qPCR analysis relative to control; type: functional; conditions: time 12.5 hrs
[5] = biological target: CYP2C9 (Homo sapiens, UniProt P11712); assay: Inhibition of CYP2C9 in human liver microsomes at 10 uM using diclofenac as substrate preincubated for 5 mins followed by NADPH generating system addition and measured after 15 mins relative to control; type: ADME, Microsome; conditions: probe diclofenac, time 20 min
[6] = test system: HepG2; assay: Downregulation of acetylated histone H3K9 level in human HepG2 cells at 5 to 10 uM preincubated for 30 mins followed by OSS128167 addition and measured after 12 hrs; type: functional, cell-based; conditions: dose 5-10 µM, time 12.5 hrs
[7] = biological target: T1, CYP1A2 (Homo sapiens, UniProt P05177); assay: Inhibition of CYP1A2 in human liver microsomes at 10 uM using phenacetin as substrate preincubated for 5 mins followed by NADPH generating system addition and measured after 15 mins relative to control; type: ADME, Microsome; conditions: probe phenacetin, time 20 min
T1 sequence (P05177 whole entry): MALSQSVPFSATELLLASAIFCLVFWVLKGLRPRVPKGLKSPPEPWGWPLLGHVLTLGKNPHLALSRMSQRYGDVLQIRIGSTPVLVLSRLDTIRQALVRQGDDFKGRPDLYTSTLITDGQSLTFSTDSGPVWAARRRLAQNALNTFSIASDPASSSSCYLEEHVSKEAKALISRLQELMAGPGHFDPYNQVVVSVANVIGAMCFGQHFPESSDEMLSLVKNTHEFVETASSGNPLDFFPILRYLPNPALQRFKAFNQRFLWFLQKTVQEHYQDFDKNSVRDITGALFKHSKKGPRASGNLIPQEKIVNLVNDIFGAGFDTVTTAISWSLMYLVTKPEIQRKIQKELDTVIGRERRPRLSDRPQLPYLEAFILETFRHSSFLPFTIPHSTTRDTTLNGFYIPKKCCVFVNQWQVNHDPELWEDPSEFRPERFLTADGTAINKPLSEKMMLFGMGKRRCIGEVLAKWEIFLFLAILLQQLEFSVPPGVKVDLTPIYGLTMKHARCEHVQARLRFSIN

[8] = AUC last in 16 hrs fasted ICR mouse at 20 mg/kg, po measured upto 8 hrs by LC-MS/MS analysis; type: ADME, organism-based; conditions: in vivo
[9] = Metabolic stability in human liver microsomes at 1 uM measured after 30 mins in presence of NADPH regeneration system by LC-MS/MS analysis; type: ADME, Microsome; conditions: read-out: Stability
[10] = test system: Mus musculus; assay: Anti-lipogenic activity against high fat died induced male C57BL/6J mouse obesity model assessed as downregulation of Ccl2 mRNA level at 15 mg/kg, po administered three times per week and measured after 5 weeks by RT-qPCT analysis; type: functional, organism-based
[11] = Stability in rat plasma measured after 120 mins by LC-MS/MS analysis; type: ADME, cell-free; conditions: read-out: Stability
[12] = biological target: CYP2C19 (Homo sapiens, UniProt P33261); assay: Inhibition of CYP2C19 in human liver microsomes at 10 uM using S-mephenytoin as substrate preincubated for 5 mins followed by NADPH generating system addition and measured after 15 mins relative to control; type: ADME, Microsome; conditions: probe S-mephenytoin, time 20 min
[13] = test system: HepG2; assay: Downregulation of SREBP-1c expression in human HepG2 cells at 5 uM pretreated with compound for 30 mins followed by T0901317 addition and measured after 12 hrs in presence of compound C by immunoblot analysis; type: functional, cell-based; conditions: time 12.5 hrs
[14] = biological target: T2, Sterol regulatory element-binding protein 1 (Homo sapiens) (UniProt P36956); assay: Inhibition of SREBP-1c transcriptional activity in human HepG2 cells expressing LXRalpha/RXRalpha assessed as reduction in SRE-luciferase level at 10 uM pretreated with compound for 30 mins followed by T0901317 addition and measured after 12 hrs by Dual-Glo luciferase assay relative to control; type: cell-based; conditions: time 12.5 hrs
T2 sequence (whole entry): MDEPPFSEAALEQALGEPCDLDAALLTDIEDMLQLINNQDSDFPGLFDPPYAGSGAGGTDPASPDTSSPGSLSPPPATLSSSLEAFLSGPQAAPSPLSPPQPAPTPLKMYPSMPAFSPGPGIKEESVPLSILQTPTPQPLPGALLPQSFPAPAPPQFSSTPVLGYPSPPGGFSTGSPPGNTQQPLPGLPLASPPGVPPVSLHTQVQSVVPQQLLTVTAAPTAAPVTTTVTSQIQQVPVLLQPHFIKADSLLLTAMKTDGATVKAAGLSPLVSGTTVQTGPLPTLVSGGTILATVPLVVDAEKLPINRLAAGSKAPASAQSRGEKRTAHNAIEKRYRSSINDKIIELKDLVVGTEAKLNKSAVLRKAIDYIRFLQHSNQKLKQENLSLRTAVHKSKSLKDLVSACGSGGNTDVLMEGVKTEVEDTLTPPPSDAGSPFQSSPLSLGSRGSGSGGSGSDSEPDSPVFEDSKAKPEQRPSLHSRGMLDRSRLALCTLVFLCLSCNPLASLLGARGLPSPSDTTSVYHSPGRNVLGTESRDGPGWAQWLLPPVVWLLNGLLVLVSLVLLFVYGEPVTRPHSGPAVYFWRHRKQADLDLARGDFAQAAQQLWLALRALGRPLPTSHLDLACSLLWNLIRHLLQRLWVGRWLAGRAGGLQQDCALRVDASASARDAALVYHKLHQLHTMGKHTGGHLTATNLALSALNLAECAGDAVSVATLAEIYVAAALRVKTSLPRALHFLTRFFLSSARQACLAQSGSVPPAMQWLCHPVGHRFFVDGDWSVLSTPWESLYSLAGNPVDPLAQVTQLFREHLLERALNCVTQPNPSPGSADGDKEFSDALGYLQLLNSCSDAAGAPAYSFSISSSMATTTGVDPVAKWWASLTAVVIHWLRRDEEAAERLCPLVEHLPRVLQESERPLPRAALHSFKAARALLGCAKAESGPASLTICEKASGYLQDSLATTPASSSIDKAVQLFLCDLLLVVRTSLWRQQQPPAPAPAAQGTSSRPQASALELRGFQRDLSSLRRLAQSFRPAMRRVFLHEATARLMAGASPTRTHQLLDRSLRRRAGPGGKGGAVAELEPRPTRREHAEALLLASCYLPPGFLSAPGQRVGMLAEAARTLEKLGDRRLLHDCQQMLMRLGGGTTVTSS

[15] = test system: HepG2; assay: Downregulation of FASN mRNA level in human HepG2 cells at 10 uM pretreated with compound for 30 mins followed by T0901317 addition and measured after 12 hrs by RT-qPCR analysis; type: functional, cell-based; conditions: time 12.5 hrs

CYP2C9, sequence (P11712 whole entry): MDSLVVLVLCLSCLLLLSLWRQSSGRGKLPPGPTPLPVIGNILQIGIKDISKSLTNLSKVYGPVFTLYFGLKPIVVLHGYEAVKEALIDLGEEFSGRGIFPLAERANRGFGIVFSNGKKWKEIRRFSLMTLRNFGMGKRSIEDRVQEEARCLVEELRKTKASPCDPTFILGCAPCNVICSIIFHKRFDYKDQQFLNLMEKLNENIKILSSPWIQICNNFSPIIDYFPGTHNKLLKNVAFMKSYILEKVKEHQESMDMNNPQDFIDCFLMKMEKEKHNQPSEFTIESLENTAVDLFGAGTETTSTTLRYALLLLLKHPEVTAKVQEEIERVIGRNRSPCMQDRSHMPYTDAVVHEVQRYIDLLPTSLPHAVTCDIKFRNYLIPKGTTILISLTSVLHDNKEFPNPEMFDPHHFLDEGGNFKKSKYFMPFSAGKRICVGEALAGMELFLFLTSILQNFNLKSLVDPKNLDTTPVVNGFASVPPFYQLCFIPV
CYP2C19, sequence (P33261 whole entry): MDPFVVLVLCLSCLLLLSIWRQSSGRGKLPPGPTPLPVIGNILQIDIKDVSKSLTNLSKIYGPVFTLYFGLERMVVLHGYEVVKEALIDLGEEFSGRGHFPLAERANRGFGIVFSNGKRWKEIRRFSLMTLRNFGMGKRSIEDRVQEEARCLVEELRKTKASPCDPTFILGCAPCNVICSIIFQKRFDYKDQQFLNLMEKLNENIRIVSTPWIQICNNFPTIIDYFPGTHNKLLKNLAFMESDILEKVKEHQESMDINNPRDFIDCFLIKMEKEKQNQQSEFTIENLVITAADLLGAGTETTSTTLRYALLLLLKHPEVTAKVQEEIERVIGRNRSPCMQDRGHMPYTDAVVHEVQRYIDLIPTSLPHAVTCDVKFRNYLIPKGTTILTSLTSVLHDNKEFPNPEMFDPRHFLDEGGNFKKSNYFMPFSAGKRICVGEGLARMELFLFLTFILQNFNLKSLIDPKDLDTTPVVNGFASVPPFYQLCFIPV

COc1ccccc1Nc1c(N[C@H]2CC[C@H](Oc3ccc([N+](=O)[O-])cc3)CC2)c(=O)c1=O
AUC(0-inf) [1]: 2400 ng·h/mL | Activity [2]: inactive | Activity [3]: Active | Activity [4]: 16.2% | inhibition at 0.25 h, 10 µM [5]: 60.5% | Activity [6]: inactive | inhibition at 0.25 h, 10 µM [7]: 98% | AUC(0-t) at 8 h [8]: 2820 ng·h/mL | remaining at 0.5 h, 1 µM [9]: 34.2% | Activity [10]: Active | remaining at 2 h [11]: 96.2% | inhibition at 0.25 h, 10 µM [12]: 41.1% | Activity [13]: inactive | inhibition [14]: 27.7% | Activity [15]: Active
